# Data as given in ChEMBL document CHEMBL5136976, “A Perspective on Medicinal Chemistry Approaches for Targeting Pyruvate Kinase M2” (J Med Chem, 2022).
# Biological target: Pyruvate kinase PKM (Homo sapiens) (UniProt P14618)
# Assay: Inhibition of PKM2 (unknown origin)
# Set-up: concentration or dose not given beside the values
# Details: concentration not given here
# Sequence of Pyruvate kinase PKM (Homo sapiens) (P14618 2-531 limits assumed): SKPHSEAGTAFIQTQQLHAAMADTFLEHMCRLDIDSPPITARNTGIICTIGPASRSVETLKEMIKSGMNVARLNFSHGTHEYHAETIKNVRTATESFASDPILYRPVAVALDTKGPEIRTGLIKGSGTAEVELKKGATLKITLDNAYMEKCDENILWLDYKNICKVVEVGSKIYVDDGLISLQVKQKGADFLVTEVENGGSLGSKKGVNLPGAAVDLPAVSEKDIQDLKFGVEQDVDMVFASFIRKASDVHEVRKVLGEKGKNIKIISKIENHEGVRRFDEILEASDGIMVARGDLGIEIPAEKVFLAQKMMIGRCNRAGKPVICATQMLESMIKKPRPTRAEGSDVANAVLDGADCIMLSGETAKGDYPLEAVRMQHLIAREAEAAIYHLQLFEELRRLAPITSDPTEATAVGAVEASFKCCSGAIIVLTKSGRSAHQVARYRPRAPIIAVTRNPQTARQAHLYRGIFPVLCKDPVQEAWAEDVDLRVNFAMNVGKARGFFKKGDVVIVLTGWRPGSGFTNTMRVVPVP
# Sequence of Pyruvate kinase PKM (Homo sapiens), P14618 (P14618 whole entry): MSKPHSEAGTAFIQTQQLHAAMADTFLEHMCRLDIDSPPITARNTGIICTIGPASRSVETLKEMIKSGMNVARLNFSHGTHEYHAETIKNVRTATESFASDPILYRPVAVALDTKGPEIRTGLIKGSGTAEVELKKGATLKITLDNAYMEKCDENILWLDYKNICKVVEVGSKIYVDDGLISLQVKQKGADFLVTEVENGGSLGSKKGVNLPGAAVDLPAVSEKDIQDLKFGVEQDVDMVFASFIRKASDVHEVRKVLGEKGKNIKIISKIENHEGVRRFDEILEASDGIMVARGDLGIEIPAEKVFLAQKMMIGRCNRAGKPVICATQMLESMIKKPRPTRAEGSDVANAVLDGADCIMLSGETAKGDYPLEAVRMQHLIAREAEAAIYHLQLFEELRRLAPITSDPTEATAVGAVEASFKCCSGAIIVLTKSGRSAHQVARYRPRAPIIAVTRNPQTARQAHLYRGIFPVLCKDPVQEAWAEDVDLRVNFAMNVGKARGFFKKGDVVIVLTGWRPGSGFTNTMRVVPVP
row,Molecule,inhibition [%]
1,O=C(O)[C@@H]1CCCN1,65
2,CSCC[C@H](N)C(=O)O,65
3,N[C@@H](Cc1c[nH]c2ccccc12)C(=O)O,65
4,CC(C)[C@H](N)C(=O)O,65
5,N[C@@H](CS)C(=O)O,20
6,C[C@H](N)C(=O)O,100
7,C[C@@H](O)[C@H](N)C(=O)O,20
8,N[C@@H](Cc1ccccc1)C(=O)O,100
9,CC[C@H](C)[C@H](N)C(=O)O,20

# Biological target: Pyruvate kinase PKM (Homo sapiens) (UniProt P14618)
# Assay: Inhibition of recombinant PKM2 (unknown origin) Asp178, Asp177, Ser362, Lys367, Hie78, Ser205, Gly128, Thr129, Tyr83, Asn75, Ile51 residues at 40 uM relative to control
# Details: not given
row,Molecule,inhibition [%]
1,O=C(O[C@@H]1Cc2c(O)cc(O)cc2O[C@@H]1c1cc(O)c(O)c(O)c1)c1cc(O)c(O)c(O)c1,49

# System: CCc1nnc(SCc2ccccc2F)c2cc3sc(C)cc3n12
# Assay: Binding affinity to PKM2 (unknown origin) assessed as Michaelis-constant
# Details: Homo sapiens; filed as activator
row,Molecule,Km [µM]
1,"Pyruvate kinase PKM (Homo sapiens), P14618",480
